Test results taken from patent US9133224B2, “Macrocyclic kinase inhibitors” (OSI Pharmaceuticals, LLC, priority 2010, dated 2015).
Read-outs that look alike come from different tables or passages of the source.

Legend:
[1] = target: T1, GST-tagged full-length FAK enzyme (PTK2) (Homo sapiens, UniProt Q05397); assay: Biochemical Omnia Assay (FAK)
T1 construct: GST-tagged full-length FAK enzyme (PTK2, Invitrogen PV4085); GST; purchased Invitrogen PV4085
Procedure: Biochemical Omnia Assay Protocol
The Omnia Assay (Invitrogen) has been optimized for GST-tagged full-length FAK enzyme (PTK2, Invitrogen PV4085).
All compound concentrations were assayed in duplicate. Initial compound dilutions were prepared at 100× concentration in 100% DMSO from a 10 mM stock solution. Compounds were further diluted 1:25 in assay buffer resulting in a 4× concentrated solution.
In running the assay, 5 μL of the above 4× concentrated compound solution (or 4% DMSO for positive controls) was added to the assay plate followed by 5 μL of a solution containing peptide (40 μM) and ATP (200 μM) in assay buffer. The reaction was initiated by the addition of 10 μL of FAK (50 nM) in assay buffer, or assay buffer alone for negative controls. The increase in fluorescence due to peptide phosphorylation was monitored continuously as a function of time using a Spectramax M5 plate reader (Molecular Devices) equipped with SoftMax Pro 5.2 software.
IC50 values were determined from the slopes of the linear progress curves by non-linear curve-fitting using GraphPad Prism 5 (GraphPad Software, Inc.).

FAK = target: T2, FAK (Homo sapiens, UniProt Q05397); assay: Cell-based capture ELISA for inhibition of FAK autophosphorylation [pY397] in U87MG cells
T2 construct: endogenous in cells; host or cells: U87MG glioblastoma cells (ATCC HTB-14)
T2 sequence (Q05397 whole entry): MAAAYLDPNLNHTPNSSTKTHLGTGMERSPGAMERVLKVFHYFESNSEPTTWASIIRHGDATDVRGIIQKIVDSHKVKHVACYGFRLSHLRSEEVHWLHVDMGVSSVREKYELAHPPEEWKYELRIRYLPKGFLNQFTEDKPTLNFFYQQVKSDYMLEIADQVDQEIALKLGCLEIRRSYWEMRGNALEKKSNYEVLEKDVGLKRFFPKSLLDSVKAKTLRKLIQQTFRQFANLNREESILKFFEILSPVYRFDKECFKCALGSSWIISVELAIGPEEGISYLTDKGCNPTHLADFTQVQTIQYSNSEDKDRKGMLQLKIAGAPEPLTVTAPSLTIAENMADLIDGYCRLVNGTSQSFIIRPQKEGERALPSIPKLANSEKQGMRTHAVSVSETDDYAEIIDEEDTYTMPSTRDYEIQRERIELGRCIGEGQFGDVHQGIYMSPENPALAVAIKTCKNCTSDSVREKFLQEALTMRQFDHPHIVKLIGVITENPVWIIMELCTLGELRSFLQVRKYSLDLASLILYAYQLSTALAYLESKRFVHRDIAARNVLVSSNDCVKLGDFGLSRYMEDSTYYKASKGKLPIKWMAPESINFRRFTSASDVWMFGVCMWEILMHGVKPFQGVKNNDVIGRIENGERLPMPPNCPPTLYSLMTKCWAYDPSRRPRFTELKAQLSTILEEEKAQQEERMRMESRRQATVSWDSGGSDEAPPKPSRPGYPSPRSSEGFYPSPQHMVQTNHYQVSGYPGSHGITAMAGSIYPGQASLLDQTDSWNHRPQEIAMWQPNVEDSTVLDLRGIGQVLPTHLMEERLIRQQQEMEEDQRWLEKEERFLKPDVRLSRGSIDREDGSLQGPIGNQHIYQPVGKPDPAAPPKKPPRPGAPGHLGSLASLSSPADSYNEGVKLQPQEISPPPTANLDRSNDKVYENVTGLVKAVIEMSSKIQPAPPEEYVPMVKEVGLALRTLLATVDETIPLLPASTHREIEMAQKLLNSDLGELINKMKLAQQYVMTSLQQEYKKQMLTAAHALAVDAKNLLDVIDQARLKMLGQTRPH
Procedure: Cell-Based Assays for Inhibition of FAK Autophosphorylation: MiaPaCa2 and U87MG
The ability of compounds to inhibit FAK autophosphorylation was determined in a cell-based capture ELISA assay using U87MG glioblastoma cells (ATCC, Cat # HTB-14) and the FAK [pY397]ELISA kit from Invitrogen (KHO0441). The assay determines the ability of compounds to block endogenous autophosphorylation of FAK stimulated by fibronectin. Cells plated on fibronectin coated 96-well plate were incubated with compounds at various concentrations in the complete growth medium for 2 h. Cell lysates were then prepared and FAK protein was captured onto a FAK antibody-coated 96-well ELISA plate. The phosphotyrosine content of FAK protein was then monitored by quantitation of degree of binding of an antibody that recognizes only the phosphorylated FAK at Y397 within the captured protein.
Reagents Provided in Biosource FAK [pY397]
Cultures of U87MG cells growing in MEM (Earles) containing non-essential amino acids, sodium pyruvate (1 mM), […] (1%) and 10% fetal bovine serum were detached by trypsin-EDTA and suspended in cell growth medium. Cells were then plated onto fibronectin (600 ng/well)-coated 96-well flat bottom plates at 1.7×10^4 cells per well in 60 uL cell growth medium and incubated overnight at 37° C. in a CO2 incubator.
Compound dilutions were prepared from 10 mM DMSO stocks by dilution in cell growth medium, the final concentration of DMSO in the assay being 0.6%. […] The cells were then incubated with compounds at 37° C. for 2 h. The medium was removed by aspiration and cells were lysed by addition of 20 uL of ice-cold cell lysis buffer per well. The plates were kept on ice for 20 min and 50 uL of standard diluent was added to each well. 50 uL of cell lysate from each well was transferred to respective wells in an assay plate and 50 uL of detection antibody was added to all wells except H1-H6 which were no antibody control wells. Capture assay plates were incubated overnight in a cold room.
Following incubation of the cell lysates and detection antibodies in the ELISA plate, the wells were washed 4 times with 120 uL of wash buffer (1×), then 100 uL of diluted HRP conjugated antibody (1:100 dil in diluent) was added to each well, and the plate was incubated at RT for 30 min. The wells were then washed for 4 times with 120 uL of wash buffer (1×) and 100 uL of chromogen was added to each well and incubated in the dark at RT for 5-10 min. 100 uL of stop solution was added to each well and the absorbance measured at 450 nm, 0.1 s.
Comparison of the assay signals obtained in the presence of compound with those of positive and negative controls (cells with no compound and no detection antibody being added), allows degree of inhibition of phospho-FAK [Y397] to be determined over a range of compound concentrations. […] The assay as described above was modified to determine the effect of inclusion of 50% (v/v) mouse or human plasma. In this assay, the compound plate was prepared as 2× concentration in 100 uL of 100% mouse or human plasma, and 60 uL of this was added to 60 uL of culture medium and incubated at 37° C. incubator for 2 h. The rest of the assay was carried out as described above.

[2] = 50% (v/v) human plasma, mean IC50, read-out: FAK Activity Mechanistic (U87MG) HP
[3] = no plasma present, mean IC50, read-out: FAK Activity Mechanistic (U87MG) NP
[4] = mean IC50, [ATP] = 50uM, read-out: FAK Activity Biochemical OMNIA, [ATP] = 50uM
[5] = 50% (v/v) mouse plasma, mean IC50, read-out: FAK Activity Mechanistic (U87MG) MP

T1 sequence (Q05397 whole entry): as above

Compound | IC50 [1] [nM] | IC50 (FAK; [2]) [nM] | IC50 (FAK; [3]) [nM] | IC50 [1, 4] [nM] | IC50 (FAK; [5]) [nM]
CCOP1(=O)Cc2ccc(c(OC)c2)Nc2ncc(C(F)(F)F)c(n2)Nc2ccc(c3c2C(=O)N(C)C3)-c2cnn(c2)C[C@H](O)CO1 (mixture of isomers) [Example 5] | < 400 | < 400 | < 400 |  | 
CCO[P@@]1(=O)Cc2ccc(c(OC)c2)Nc2ncc(C(F)(F)F)c(n2)Nc2cc(F)c(cc2C(=O)NC)-c2cnn(c2)CCCO1.CCO[P@]1(=O)Cc2ccc(c(OC)c2)Nc2ncc(C(F)(F)F)c(n2)Nc2cc(F)c(cc2C(=O)NC)-c2cnn(c2)CCCO1 (mixture of isomers) [Example 7] |  | < 400 | < 400 | < 400 | < 400
CCOP1(=O)Cc2ccc(c(OC)c2)Nc2ncc(C(F)(F)F)c(n2)Nc2ccc(nc2C(=O)NC)-c2cnn(c2)CC(C)CO1 (mixture of isomers) [Example 19] |  | < 400 | < 400 | < 400 | 
CCOP1(=O)Cc2ccc(cc2)Nc2ncc(C(F)(F)F)c(n2)Nc2ccc(nc2C(=O)NC)-c2cnn(c2)CC(C)CO1 (mixture of isomers) [Example 21] |  | < 400 | < 400 | < 400 | 
CCOP1(=O)Cc2ccc(c(OC)c2)Nc2ncc(C(F)(F)F)c(n2)Nc2ccc(nc2C(=O)NC)-c2cnn(c2)CC[C@@H](C)O1 (mixture of isomers) [Example 69] |  | < 400 | < 400 |  | 
CCOP1(=O)Cc2ccc(c(OC)c2)Nc2ncc(C(F)(F)F)c(n2)Nc2ccc(nc2C(=O)NC)-c2cnn(c2)CC[C@H](C)O1 (mixture of isomers) [Example 70] |  | < 400 | < 400 |  | 400 to 4000
CCOP1(=O)Cc2ccc(c(OC)c2)Nc2ncc(C(F)(F)F)c(n2)Nc2ccc(c3c2C(=O)N(C)C3)-c2cnn(c2)CCCO1 (racemic) [Example 1] | < 400 | < 400 | < 400 |  | 
CCOP1(=O)Cc2ccc(cc2)Nc2ncc(C(F)(F)F)c(n2)Nc2ccc(c3c2C(=O)N(C)C3)-c2cnn(c2)CCCO1 (racemic) [Example 2] | < 400 | < 400 |  |  | 
CCOP1(=O)Cc2ccc(c(OC)c2)Nc2ncc(C(F)(F)F)c(n2)Nc2ccc(cc2C(=O)NC)-c2cnn(c2)CCCO1 (racemic) [Example 4] | < 400 | < 400 | < 400 |  | 
CCOP1(=O)Cc2ccc(c(OC)c2)Nc2ncc(C(F)(F)F)c(n2)Nc2ccc(nc2C(=O)NC)-c2cnn(c2)CCCO1 (racemic) [Example 6] | < 400 | < 400 | < 400 |  | 
CCOP1(=O)Cc2ccc(cc2)Nc2ncc(C(F)(F)F)c(n2)Nc2ccc(cc2C(=O)NC)-c2cnn(c2)CCCO1 (racemic) [Example 8] | < 400 | < 400 | < 400 |  | 
CCNC(=O)c1cc2ccc1Nc1nc(ncc1C(F)(F)F)Nc1ccc(cc1OC)CP(=O)(OCC)OCCCn1cc-2cn1 (racemic) [Example 9] | < 400 | < 400 | < 400 |  | 400 to 4000
CCNC(=O)c1cc2ccc1Nc1nc(ncc1C(F)(F)F)Nc1ccc(cc1)CP(=O)(OCC)OCCCn1cc-2cn1 (racemic) [Example 10] | < 400 | > 4000 | 400 to 4000 |  | 
CCOP1(=O)Cc2ccc(cc2)Nc2ncc(C(F)(F)F)c(n2)Nc2ccc(cc2C(=O)N(C)C)-c2cnn(c2)CCCO1 (racemic) [Example 11] | < 400 | 400 to 4000 | < 400 |  | 
CCOP1(=O)Cc2ccc(c(OC)c2)Nc2ncc(C(F)(F)F)c(n2)Nc2ccc(cc2C(=O)N(C)C)-c2cnn(c2)CCCO1 (racemic) [Example 12] |  | 400 to 4000 | < 400 | < 400 | 
CCOP1(=O)Cc2ccc(cc2)Nc2ncc(C(F)(F)F)c(n2)Nc2ccc(nc2C(=O)NC)-c2cnn(c2)CCCO1 (racemic) [Example 13] |  | < 400 | < 400 | < 400 | 
CCOP1(=O)Cc2ccc(c(OC)c2)Nc2ncc(C(F)(F)F)c(n2)Nc2ccc(cc2C(=O)NC)-c2cnn(c2)CCCCO1 (racemic) [Example 14] |  | < 400 | < 400 | < 400 | 
CCOP1(=O)Cc2ccc(c(OC)c2)Nc2ncc(C(F)(F)F)c(n2)Nc2ccc(nc2C(=O)NC)-c2cnn(c2)CCCCO1 (racemic) [Example 15] | < 400 | < 400 | < 400 |  | 
CCOP1(=O)Cc2ccc(c(OC)c2)Nc2ncc(C(F)(F)F)c(n2)Nc2ccc(c3c2C(=O)N(C)C3)-c2cnn(c2)CCCCO1 (racemic) [Example 17] |  | < 400 | < 400 | < 400 | 
CCOP1(=O)Cc2ccc(c(F)c2)Nc2ncc(C(F)(F)F)c(n2)Nc2ccc(nc2C(=O)NC)-c2cnn(c2)CCCO1 (racemic) [Example 22] | < 400 | < 400 | 400 to 4000 |  | 
CCOP1(=O)Cc2ccc(c(F)c2)Nc2ncc(C(F)(F)F)c(n2)Nc2ccc(nc2C(=O)NC)-c2cnn(c2)CCCCO1 (racemic) [Example 23] |  | < 400 | < 400 | < 400 | 
CCOP1(=O)Cc2ccc(c(Cl)c2)Nc2ncc(C(F)(F)F)c(n2)Nc2ccc(nc2C(=O)NC)-c2cnn(c2)CCCO1 (racemic) [Example 24] |  | < 400 | 400 to 4000 | < 400 | 
CCOP1(=O)Cc2ccc(c(Cl)c2)Nc2ncc(C(F)(F)F)c(n2)Nc2ccc(nc2C(=O)NC)-c2cnn(c2)CCCCO1 (racemic) [Example 25] | < 400 | < 400 | < 400 |  | 
CCOP1(=O)Cc2ccc(c(OC)c2)Nc2ncc(C(F)(F)F)c(n2)Nc2ccc(cc2C(=O)NOC)-c2cnn(c2)CCCO1 (racemic) [Example 26] |  | < 400 | < 400 | < 400 | 400 to 4000
CCOP1(=O)Cc2ccc(c(OC)c2)Nc2ncc(C(F)(F)F)c(n2)Nc2ccc(nc2C(=O)NC)-c2cnn(c2)CC2(CC2)CO1 (racemic) [Example 63] |  | < 400 | < 400 |  | 
CCP1(=O)Cc2ccc(c(OC)c2)Nc2ncc(C(F)(F)F)c(n2)Nc2ccc(nc2C(=O)NC)-c2cnn(c2)CC2(CC2)CO1 (racemic) [Example 71] |  | < 400 | < 400 |  | < 400
CNC(=O)c1nc2ccc1Nc1nc(ncc1C(F)(F)F)Nc1ccc(cc1OC)CP(=O)(OC(C)C)OCCCn1cc-2cn1 (racemic) [Example 72] |  | < 400 | < 400 |  | < 400
CNC(=O)c1nc2ccc1Nc1nc(ncc1C(F)(F)F)Nc1ccc(cc1OC)CP(C)(=O)OCCCn1cc-2cn1 (single isomer, unassigned) [Example 61B] |  |  |  | < 400 | 
CNC(=O)c1nc2ccc1Nc1nc(ncc1C(F)(F)F)Nc1ccc(cc1OC)CP(=O)(OC(C)C)OCCCn1cc-2cn1 (single isomer, unassigned) [Example 72A] |  | 400 to 4000 | < 400 |  | < 400
